Test results reported in US7795226B2, “Control of radiation injury” (Biotempt B.V., priority 2006, dated 2010).
Several values for one entry are separate records, joined by “and”; a condition that tells them apart may be missing. Equal values may be shown once.

Tests used:
Type in all cases: in vivo
[1] = system: renal ischemia reperfusion in mice; assay: mouse renal ischemia reperfusion test; set-up: BUN after 25 minutes renal ischemia, mean / Urea levels in dose-response experiment: unit not given here; conditions: 5 mg/kg i.v.
Summary of the method: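 In anesthetized mice kept at 37° C, the left renal pedicle was clamped for 25 min and the right kidney removed after reperfusion. Peptide in saline was given i.v. (5 mg/kg; other series 0.3–30 mg/kg) 5 min before clamping and 5 min before release, with PBS as control. Mortality and BUN were measured at 2, 24 and 72 h; P values were calculated by Mann-Whitney U-test.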

[2] = system: LPS (E. coli 026:B6)-induced septic shock in BALB/c mice; assay: LPS-induced septic shock, single dose of peptide
Summary of the method: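 Female BALB/c mice (8–12 weeks, SPF) received 150–300 μg LPS (E. coli 026:B6) i.p., doses set to give 80–100% mortality in 24–72 h. Peptides in PBS were given i.p. once at 5 mg/kg, 2 h or 24 h after LPS; PBS i.p. controls. Sickness scored 0–5 or dead.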

[3] = system: high dose LPS (E. coli 026:B6)-induced septic shock in BALB/c mice; assay: high dose LPS-induced septic shock, peptide administered twice; conditions: peptide twice (t = 2 and 24 hours) 5 mg/kg
Summary of the method: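 Female BALB/c mice (8–12 weeks) given high-dose LPS (E. coli 026:B6) i.p., predetermined to cause 80–100% mortality in 24–72 h. Peptides in PBS at 5 mg/kg i.p. at 2 and 24 h after LPS; sickness scored 0–5 or dead.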

[4] = LPS dose 7**, single dose 5 mg/kg
[5] = LPS dose 7*, single dose 5 mg/kg
[6] = LPS dose 8, single dose 5 mg/kg
[7] = LPS dose 8, single dose 5 mg/kg, 5 mg/kg
[8] = LPS dose 10, single dose 5 mg/kg
[9] = LPS dose 10, single dose 5 mg/kg, 5 mg/kg

Substance: LQGV
- BUN after 25 minutes renal ischemia, mean ([1]; 2 hours after reperfusion): 17.53
- BUN after 25 minutes renal ischemia, mean ([1]; 24 hours after reperfusion): 56.08
- BUN after 25 minutes renal ischemia, mean ([1]; 72 hours after reperfusion): 73.18
- BUN after 25 minutes renal ischemia, mean ([1]; t = 0 hr (before clamping)): 7.518
- protective effect against LPS-induced sepsis (in words) ([2]; 5 mg/kg i.p.): marked protective effect
- mice with sickness score 1, effect at t = 24 hours [2, 4]: 6
- mice with sickness score 1, effect at t = 48 hours [2, 4]: 6
- mice with sickness score 1, effect at t = 24 hours [2, 5]: 2
- mice with sickness score 1, effect at t = 48 hours [2, 5]: 6
- mice with sickness score 2, effect at t = 24 hours [2, 5]: 4
- mice with sickness score 0, effect at t = 48 hours [2, 6]: 4
- mice with sickness score 1, effect at t = 24 hours [2, 6]: 3
- mice with sickness score 2, effect at t = 48 hours [2, 6]: 1
- mice with sickness score 3, effect at t = 24 hours [2, 6]: 1
- mice with sickness score 2, effect at t = 24 hours [2, 7]: 5 and 3
- mice scored D (dead), effect at t = 48 hours [2, 8]: 1
- mice with sickness score 1, effect at t = 24 hours [2, 8]: 2
- mice with sickness score 2, effect at t = 48 hours [2, 8]: 1
- mice with sickness score 3, effect at t = 24 hours [2, 8]: 1
- mice with sickness score 4, effect at t = 24 hours [2, 8]: 1
- mice with sickness score 1, effect at t = 48 hours [2, 9]: 6 and 4
- mice scored D (dead), effect at t = 48 hours ([3]; LPS dose 10.5): 5
- mice with sickness score 5, effect at t = 24 hours ([3]; LPS dose 10.5): 5
- mice scored D (dead), effect at t = 48 hours ([3]; LPS dose 11): 4
- mice with sickness score 4, effect at t = 24 hours ([3]; LPS dose 11): 2
- mice with sickness score 4, effect at t = 48 hours ([3]; LPS dose 11): 2
- mice with sickness score 5, effect at t = 24 hours ([3]; LPS dose 11): 4

Substance: VLPALPQ (septamer peptide)
- BUN after 25 minutes renal ischemia, mean ([1]; 2 hours after reperfusion): 13.58
- BUN after 25 minutes renal ischemia, mean ([1]; 24 hours after reperfusion): 37.79
- BUN after 25 minutes renal ischemia, mean ([1]; 72 hours after reperfusion): 37.6375
- BUN concentration versus PBS (in words) ([1]; at 72 hours post-reperfusion): did much better in terms of reduced BUN concentration
- BUN after 25 minutes renal ischemia, mean ([1]; t = 0 hr (before clamping)): 8.257
- mice scored D (dead), effect at t = 24 hours [2, 4]: 1
- mice scored D (dead), effect at t = 48 hours [2, 4]: 6
- mice with sickness score 5, effect at t = 24 hours [2, 4]: 5
- mice scored D (dead), effect at t = 48 hours [2, 5]: 2
- mice with sickness score 3, effect at t = 24 hours [2, 5]: 3
- mice with sickness score 4, effect at t = 24 hours [2, 5]: 3
- mice with sickness score 4, effect at t = 48 hours [2, 5]: 2
- mice with sickness score 5, effect at t = 48 hours [2, 5]: 2
- mice scored D (dead), effect at t = 24 hours [2, 6]: 2
- mice scored D (dead), effect at t = 48 hours [2, 6]: 6
- mice with sickness score 2, effect at t = 24 hours [2, 6]: 1
- mice with sickness score 3, effect at t = 24 hours [2, 6]: 3
- mice with sickness score 3, effect at t = 48 hours [2, 6]: 1
- mice with sickness score 4, effect at t = 48 hours [2, 6]: 3
- mice with sickness score 5, effect at t = 24 hours [2, 6]: 3
- mice with sickness score 5, effect at t = 48 hours [2, 6]: 2
- mice with sickness score 4, effect at t = 24 hours [2, 7]: 2 and 1
- mice scored D (dead), effect at t = 24 hours [2, 8]: 3
- mice scored D (dead), effect at t = 48 hours [2, 8]: 5
- mice with sickness score 3, effect at t = 24 hours [2, 8]: 1
- mice with sickness score 4, effect at t = 24 hours [2, 8]: 2
- mice with sickness score 5, effect at t = 48 hours [2, 8]: 1
- mice with sickness score 5, effect at t = 24 hours [2, 9]: 4 and 2
- mice scored D (dead), effect at t = 48 hours ([3]; LPS dose 10.5): 2
- mice with sickness score 2, effect at t = 24 hours ([3]; LPS dose 10.5): 1
- mice with sickness score 2, effect at t = 48 hours ([3]; LPS dose 10.5): 3
- mice with sickness score 3, effect at t = 24 hours ([3]; LPS dose 10.5): 2
- mice with sickness score 5, effect at t = 24 hours ([3]; LPS dose 10.5): 2
- mice scored D (dead), effect at t = 48 hours ([3]; LPS dose 11): 2
- mice with sickness score 4, effect at t = 48 hours ([3]; LPS dose 11): 3
- mice with sickness score 5, effect at t = 24 hours ([3]; LPS dose 11): 6
- mice with sickness score 5, effect at t = 48 hours ([3]; LPS dose 11): 1
- mice with sickness score 2, effect at t = 48 hours ([3]; LPS dose 11, 5 mg/kg): 4 and 2
